# Laboratory results taken from patent US12398120B2, “Substituted hydantoinamides as ADAMTS7 antagonists” (BAYER AKTIENGESELLSCHAFT, priority 2019, dated 2025).
# Target: ADAMTS4 (Homo sapiens (Human), UniProt O75173)
# Assay: Selectivity assay for ADAMTS-7 modulators: ADAMTS4 (FRET substrate)
# Format: biochemical
# Conditions: ADAMTS4 (R&D 4307-AD) 50 nM, substrate Dabcyl-EEVKAKVQPY-Glu(Edans)-NH2 1 μM, 120 min, 32° C.
# Summary of the method: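 Human ADAMTS4 with compound in DMSO, or DMSO control; reaction started by adding FRET substrate in reaction buffer. Fluorescence increase measured at substrate-specific wavelengths. IC50 derived from % inhibition of enzyme activity versus compound concentration.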
# Sequence of ADAMTS4 (O75173 213-685): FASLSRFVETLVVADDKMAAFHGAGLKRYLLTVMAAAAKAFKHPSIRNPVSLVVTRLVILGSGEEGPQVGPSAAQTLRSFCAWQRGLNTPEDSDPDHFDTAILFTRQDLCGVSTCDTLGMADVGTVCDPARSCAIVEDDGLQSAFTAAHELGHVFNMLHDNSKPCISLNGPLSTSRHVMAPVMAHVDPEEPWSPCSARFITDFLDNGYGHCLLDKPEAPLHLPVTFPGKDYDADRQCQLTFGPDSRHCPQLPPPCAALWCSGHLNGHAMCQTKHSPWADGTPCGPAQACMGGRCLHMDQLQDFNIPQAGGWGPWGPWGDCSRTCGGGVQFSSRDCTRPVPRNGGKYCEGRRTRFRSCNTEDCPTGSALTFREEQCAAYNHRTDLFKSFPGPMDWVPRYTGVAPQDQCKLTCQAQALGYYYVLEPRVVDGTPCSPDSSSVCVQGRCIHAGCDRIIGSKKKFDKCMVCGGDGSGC
row,IC50,SMILES
1,16 µM,"O=C1NC(=O)C(CNC(=O)c2ccccc2-c2ccc(C(F)(F)F)nc2)(c2cscn2)N1 (stereo not drawn) [Example 277, Ent-N-{[2,5-Dioxo-4-(1,3-Thiazol-4-Yl)Imidazolidin-4-Yl]Methyl}-2-[6-(Trifluoromethyl)Pyridin-3-Yl]Benzamide]"
2,8.6 µM,"O=C1NC(=O)C(CNC(=O)c2ccc(F)c(F)c2-c2ccc(C(F)(F)F)cc2)(c2cscn2)N1 (stereo not drawn) [Example 278, Ent-N-{[2,5-Dioxo-4-(1,3-Thiazol-4-Yl)Imidazolidin-4-Yl]Methyl}-5,6-Difluoro-4′-(Trifluoromethyl)[Biphenyl]-2-Carboxamide]"
3,7.1 µM,"O=C1NC(=O)C(CNC(=O)c2ccccc2-c2ccc(C(F)(F)F)cc2)(C2(Cl)CC2)N1 (stereo not drawn) [Example 280, Ent-N-{[4-(1-Chlorocyclopropyl)-2,5-Dioxoimidazolidin-4-Yl]Methyl}-4′-(Trifluoromethyl)[Biphenyl]-2-Carboxamide]"
4,21 µM,"O=C1NC(=O)[C@](CNC(=O)c2ccc(F)cc2-c2ccc(C(F)(F)F)nc2)(C2CC2)N1 [Example 290, N-{[(4R)-4-Cyclopropyl-2,5-Dioxoimidazolidin-4-Yl]Methyl}-4-Fluoro-2-[6-(Trifluoromethyl)Pyridin-3-Yl]Benzamide]"
5,9.5 µM,"O=C1NC(=O)C(CNC(=O)c2ccc(F)cc2-c2ccc(C(F)(F)F)cc2)(c2ccnn2C(F)F)N1 (stereo not drawn) [Example 296, Ent-N-({4-[1-(Difluoromethyl)-1H-Pyrazol-5-Yl]-2,5-Dioxoimidazolidin-4-Yl}Methyl)-5-Fluoro-4′-(Trifluoromethyl)[Biphenyl]-2-Carboxamide]"
6,4.1 µM,"Cn1cncc1C1(CNC(=O)c2ccccc2-c2ccc(C(F)(F)F)cc2)NC(=O)NC1=O (stereo not drawn) [Example 297, Ent-N-{[4-(1-Methyl-1H-Imidazol-5-Yl)-2,5-Dioxoimidazolidin-4-Yl]Methyl}-4′-(Trifluoromethyl)[Biphenyl]-2-Carboxamide]"
7,7.6 µM,"Cc1cc(C2(CNC(=O)c3ccccc3-c3ccc(C(F)(F)F)cc3)NC(=O)NC2=O)n(C)n1 (stereo not drawn) [Example 302, Ent-N-{[4-(1,3-Dimethyl-1H-Pyrazol-5-Yl)-2,5-Dioxoimidazolidin-4-Yl]Methyl}-4′-(Trifluoromethyl)[Biphenyl]-2-Carboxamide]"
